From ChEMBL document CHEMBL4118204, “Antidiabetic potential of phytochemicals isolated from the stem bark of Myristica fatua Houtt. var. magnifica (Bedd.) Sinclair” (Bioorg Med Chem, 2018)

What was measured:
L6 [1] = assay: Antidiabetic activity in rat L6 cells assessed as increase in 2-NBDG uptake pretreated for 24 hrs followed by 2-NBDG addition after 30 mins by FACS; assay type: functional, cell-based
Albumin = Albumin (Bos taurus, UniProt P02769); assay: Antiglycation activity in bovine serum albumin assessed as inhibition of advanced glycated end product formation after 24 hrs in presence of alpha-D-glucose by fluorescence assay
L6 [2] = assay: Cytotoxicity against rat L6 cells up to 50 uM after 24 hrs by MTT assay; assay type: cell-based; conditions: l6, 24 h
L6 [3] = assay: Antidiabetic activity in rat L6 cells assessed as effect on 2-NBDG uptake at 50 uM pretreated for 24 hrs followed by 2-NBDG addition after 30 mins by FACS (reference value: 20%); assay type: functional
L6 [4] = assay: Antidiabetic activity in rat L6 cells assessed as effect on 2-NBDG uptake at 25 uM pretreated for 24 hrs followed by 2-NBDG addition after 30 mins by FACS (reference value: 20%); assay type: functional
Pancreatic alpha-amylase = target: T1, Pancreatic alpha-amylase (Sus scrofa, UniProt P00690); assay: Inhibition of porcine pancreatic alpha-amylase using starch as substrate after 30 mins by iodine reagent based assay
T1 sequence (P00690 whole entry): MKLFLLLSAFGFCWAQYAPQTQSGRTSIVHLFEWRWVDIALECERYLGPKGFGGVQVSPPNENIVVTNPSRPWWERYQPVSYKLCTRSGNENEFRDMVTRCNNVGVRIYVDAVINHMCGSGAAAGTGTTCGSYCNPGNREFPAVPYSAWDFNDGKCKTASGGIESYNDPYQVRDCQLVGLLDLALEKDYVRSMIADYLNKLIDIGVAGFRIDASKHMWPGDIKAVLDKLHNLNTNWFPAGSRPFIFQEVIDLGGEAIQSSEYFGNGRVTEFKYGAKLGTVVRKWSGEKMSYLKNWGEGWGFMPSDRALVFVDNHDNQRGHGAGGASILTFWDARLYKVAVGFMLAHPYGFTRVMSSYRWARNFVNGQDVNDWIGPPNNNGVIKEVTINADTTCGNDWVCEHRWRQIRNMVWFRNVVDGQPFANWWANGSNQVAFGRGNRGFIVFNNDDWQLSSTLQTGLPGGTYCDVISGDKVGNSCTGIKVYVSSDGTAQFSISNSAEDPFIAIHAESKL

L6 [5] = assay: Antidiabetic activity in rat L6 cells assessed as effect on 2-NBDG uptake at 10 uM pretreated for 24 hrs followed by 2-NBDG addition after 30 mins by FACS (reference value: 20%); assay type: functional
[6] = Inhibition of rat intestinal alpha-glucosidase using p-nitrophenyl alpha-D-glucopyranoside as substrate pretreated for 10 mins followed by substrate addition measured after 5 mins
L6 [7] = assay: Antidiabetic activity in rat L6 cells assessed as effect on 2-NBDG uptake at 100 uM pretreated for 24 hrs followed by 2-NBDG addition after 30 mins by FACS (reference value: 20%); assay type: functional

Sequence of Albumin (P02769 whole entry): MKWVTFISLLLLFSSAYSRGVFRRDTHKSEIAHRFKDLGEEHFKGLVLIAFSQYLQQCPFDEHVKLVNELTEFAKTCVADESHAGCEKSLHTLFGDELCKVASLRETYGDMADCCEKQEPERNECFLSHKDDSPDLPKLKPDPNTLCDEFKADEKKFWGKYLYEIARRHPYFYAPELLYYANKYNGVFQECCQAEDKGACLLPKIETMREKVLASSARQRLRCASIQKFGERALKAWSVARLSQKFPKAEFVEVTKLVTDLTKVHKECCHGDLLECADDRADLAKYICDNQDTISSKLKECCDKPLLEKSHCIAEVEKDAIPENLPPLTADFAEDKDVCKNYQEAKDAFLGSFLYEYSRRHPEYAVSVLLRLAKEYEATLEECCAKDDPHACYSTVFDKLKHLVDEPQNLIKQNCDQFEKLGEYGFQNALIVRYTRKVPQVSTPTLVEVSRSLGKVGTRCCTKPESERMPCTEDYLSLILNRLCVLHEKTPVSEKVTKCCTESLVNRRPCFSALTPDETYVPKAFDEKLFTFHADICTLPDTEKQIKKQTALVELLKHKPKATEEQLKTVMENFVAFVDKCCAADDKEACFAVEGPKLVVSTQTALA

| Compound | Activity (L6 [1]) | IC50 (Albumin) | Activity (L6 [2]) | Activity (L6 [3]) | Activity (L6 [4]) | IC50 (Pancreatic alpha-amylase) | Activity (L6 [5]) | IC50 [6] | Activity (L6 [7]) |
| --- | --- | --- | --- | --- | --- | --- | --- | --- | --- |
| CCCCCCCCCCCCCC(=O)c1c(O)cccc1O | Dose-dependent effect | 121 µM | Non-Toxic | 36.3% | 34.1% | 74.1 µM | 32.9% | 172 µM |  |
| CN(C)C(=N)NC(=N)N [METFORMIN] |  |  |  |  |  |  |  |  | 36.6% |
| C[C@H]1O[C@H](O[C@H]2[C@H](O)[C@@H](O)[C@@H](O[C@H]3[C@H](O)[C@@H](O)C(O)O[C@@H]3CO)O[C@@H]2CO)[C@H](O)[C@@H](O)[C@@H]1N[C@H]1C=C(CO)[C@@H](O)[C@H](O)[C@H]1O (some centres not stated) [ACARBOSE] |  |  |  |  |  |  |  | 66.6 µM |  |
| O=C(CCCCCCCCc1ccc(O)c(O)c1)c1c(O)cccc1O [MALABARICONE C] | Dose-dependent effect | 15 µM | Non-Toxic | 23.9% | 18.3% | 10.6 µM | 17% | 43.6 µM |  |
| CCCCCCCCCCCCCC(=O)c1c(O)cccc1OC | Dose-dependent effect | 192 µM | Non-Toxic | 34.7% | 28% | 39 µM | 21.2% | 257 µM |  |
| O=C(CCCCCCCCc1ccc(O)cc1)c1c(O)cccc1O [MALABARICONE B] | Dose-dependent effect | 40.3 µM |  | 52.7% | 45.8% | 12.9 µM | 37.5% | 63.7 µM |  |
| O=C(CCCCCCCCc1ccccc1)c1c(O)cccc1O [MALABARICONE A] | Dose-dependent effect | 19.3 µM | Non-Toxic | 36.7% | 33.4% | 19.1 µM | 32.9% | 91.4 µM |  |
| COc1cccc(O)c1C(=O)CCCCCCCCc1ccc(O)cc1 | Dose-dependent effect | 104 µM | Non-Toxic | 34.6% | 34.1% | 32.3 µM | 18.3% | 94.5 µM |  |
| CCCCCCCCCCCCC(=O)c1cccc(C(=O)O)c1 | Dose-dependent effect | 411 µM | Non-Toxic | 31.5% | 22.5% | 36.6 µM | 17% | 372 µM |  |
